In assay [1] the test system is nicotine addiction. Put plainly: Site selectivity paradigm, nicotine addiction. Format: in vivo. Conditions: mice conditioned by nicotine. An excerpt: (§1) 7. Using raspberry powder and pure ellagic acid (Sigma Aldrich) two experiments in mice were developed, one was to evaluate the effect of those in the anxiety caused by nicotine withdraw syndrome; and the other was to evaluate the nicotine addiction. Based on the process mentioned in the Mexican Institute of Industrial Property in patent application number Mx/a/2010/000827 record dated 21/ENE/2010, folio MX/E/2010/004489. In the first case the high-cross test was used and in the second test site selectivity paradigm. Nicotine was administered to mice for 14 consecutive days and when it was suspended, anxiety was developed.

In assay [2] the test system is lung tumorogenesis of benzo [a] pyrene. The settings on record: cited from earlier work.
Assay [3] relates to tumorigenicity of the nitrosamine NNK. Conditions: dose of 4g/kg; cited from earlier work.
The test system of assay [4] is anxiety caused by nicotine withdraw syndrome. The assay is described as follows: High-cross test, anxiety caused by nicotine withdraw syndrome. Conditions: mice, nicotine for 14 consecutive days then suspended. In kind it is in vivo.
Source text: as §1

The test system of assay [5] is smoking. Put plainly: Smoking cessation and follow-up by telephone. Format: in vivo, humans. An excerpt:
(§2) 9. Treatment 1:—Two persons, a person and a person […], used ZAM ® (activated and micronized zeolite) at doses of 5 g daily during 14 days.
(§3) 10. Treatment 2:—Two persons, a person and a person […], used the raspberry powder recorded in January 2010 in the Mexican Institute of Industrial Property (patent application number record Mx/ a/2010/ 000827, at folio MX/E/2010/004489). At a dose of 5 g per day during 14 days.
(§4) 11. Treatment 3: A person, a person used a commercial product of raspberry, with similar characteristics to the raspberry powder, mentioned in the previous section, in combination with ZAM® (activated and micronized zeolite) at dose of 5 g per day.
(§5) 12. Treatment 4: Two persons, a person and a person, used raspberry powder registered in the patent application number Mx/a/2010/000827, folio MX/E/2010/004489) in combination with ZAM® (micronized and activated zeolite) in a dose of 7 g per day during 14 days.
(§6) 13. Treatment 5:—A person used varenicline, commercial brand, at dose of 1 mg twice daily during 7 days, then 0.5 mg daily for the next 3 days; continuing with 0.5 mg twice a day during 4 days, and finally 1 mg during 1 day, every 12 h. This cycle was repeated 12 weeks. Treatment 5.

Assay [6] relates to anxiety (withdrawal syndrome). Put plainly: Hamilton Anxiety Scale in persons quitting smoking. Conditions: one person, 12 weeks treatment. In kind it is in vivo, humans.
Source text: as §2, §3, §4, §5
13. […]
14. Anxiety was assessed by the Hamilton Anxiety Scale (Hamilton, 1969; Bulbena, 2000; APA, 2000) and the degree of nicotine dependence with Fagerstrom test (1991). […]
16. 14 scale items were evaluated, 13 related to anxiety symptoms and signs, and the last item values the patient's behavior during the assessment interview. […]
17. The physician scored from 0 to 4 points each item, assessing both the intensity and the frequency of it. […]

In assay [7] the test system is physical dependence on nicotine. Put plainly: Fagerstrom test, degree of nicotine dependence. Format: in vivo, humans. Conditions: persons quitting smoking, at end of treatment.
Source text: as §2, §3, §4, §5, §6
14. Anxiety was assessed by the Hamilton Anxiety Scale (Hamilton, 1969; Bulbena, 2000; APA, 2000) and the degree of nicotine dependence with Fagerstrom test (1991).
25. […]

Structures are written as SMILES.

In the case of `O=c1oc2c(O)c(O)cc3c(=O)oc4c(O)c(O)cc1c4c23` [ellagic acid, 2,3,7, 8—tetrahidrobenzopirano [5,4, 3—cde] benzopiran-5-10 diona], in assay [1], the nicotine-conditioned behavior entry is “modulate this behavior in a significant way”. The “effect against tumorogenesis in lung of benzo [a] pyrene” value in assay [2] (intra peritoneal injection) is “not effective”. Also, the “inhibition in the lung tumorogenesis of benzo [a] pyrene” value in assay [2] (mice feed by EA at a dose of 400 mg/kg) is given as 90%. The “inhibition of tumor multiplicity” value in assay [3] is reported as 54%. For the same compound, in assay [4], the “signs related to anxiety caused by the refraining from exposure to nicotine” value was “significantly reduce”.

For the compound `c1cnc2cc3c(cc2n1)[C@@H]1CNC[C@H]3C1` [varenicline], in assay [5] (monitoring by telephone, 1 month after treatment ends), the “relapse a month after the treatment” value was “fall smoking again”. Besides, the “smoking cessation during treatment period” value in assay [5] (persons, during treatment / proposed period) was “quit smoking in the second month of treatment”. In addition, in assay [6], the “Hamilton Anxiety Scale, anxiety during the first month of treatment” value is given as “less anxiety”; the “Hamilton Anxiety Scale, anxiety during the second and third month” value is reported as “increased anxiety”. The “Fagerstrom test, physical dependence after treatment” value in assay [7] is “high (The Smokers with 6 or 7 points suffer high physical dependence)”.

Source of the values: US20150216921A1, “BASE POWDER FROM THE RED RASPBERRY RUBUS IDAEUS AND ACTIVATED MICRONIZED ZEOLITE FOR ATTENUATING NICOTINE ADDICTION, METHOD FOR THE PREPARATION THEREOF AND USE THEREOF” (University fo Hidalgo, priority 2011, published 2015).
